The record followed here is patent publication US9315475B2 (MERCK SHARP & DOHME CORP., priority 2011, dated 2016).

Where a name gives a salt, the structure may show the parent alone.

By EC50 is commonly meant the midpoint of the concentration-response curve. Low readings indicate an effect from little substance, high ones a need for much substance.

Experiment [1] concerns the target T1, wildtype HIV-1 protease (Human immunodeficiency virus type 1 group M subtype B, UniProt P04585).
T1 construct: the wildtype HIV-1 protease (which was expressed in Escherichia coli); made in house; host or cells: Escherichia coli
Description: Assay for inhibition of microbial expressed HIV protease (Pepcleav). The following applies: wild type HIV-1 protease expressed in E. coli, peptide substrate, pH 5.5; mean of at least two independent experiments; read-out: Pepcleav. Format: biochemical. An outline of the steps:
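Cleavage of 400 μM peptide substrate Val-Ser-Gln-Asn-(βnaphthyl)Ala-Pro-Ile-Val by 20 pM wild-type enzyme (E. coli-expressed) ran 1 h at 30 °C after 30 min inhibitor preincubation, pH 5.5 acetate buffer. Inhibition derived from product peak area by C18 LC with multiple-reaction-monitoring MS after formic acid quench.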

The test system of experiment [2] is HIV-1 (H9IIIB strain). Description: Antiviral acute infection assay in cell culture (Spread). Format: cell-based. The following applies: Human immunodeficiency virus 1, T-lymphoid, HIV-1 H9IIIB infection of MT-4 human T-lymphoid cells in 10% FBS; mean of at least two independent experiments. The text has this: Antiviral Assays in Cell Culture (“Spread”)
Acute Infection Assay (“Spread”) data were generated using HIV-1 (H9IIIB strain) infection of MT-4 human T-lymphoid cells in 10% FBS, and according to the methods disclosed by J. P. Vacca et al, “L-735,524: An orally bioavailable human immunodeficiency virus type 1 protease inhibitor,” Proc. Natl. Acad. Sci. USA, Vol. 91, pp. 4096-4100 (April 1994).

On to `N[C@H](C(=O)Nc1cncc(F)c1CC[C@@H]1CN[C@H](COC(=O)NCc2ccno2)CO1)C(c1ccc(F)cc1)c1ccc(F)cc1` [Example 255, 4-fluoro-N-(5-fluoro-4-{2-[(2R,5S)-5-({[(isoxazol-5-ylmethyl)carbamoyl]oxy}methyl)morpholin-2-yl]ethyl}pyridin-3-yl)-β-(4-fluorophenyI)-L-phenylalaninamide], for which the IC50 in experiment [1] amounted to 6.4 nM. A half-maximal response in experiment [2] (EC50) required 210 nM.

Consider `N[C@H](C(=O)Nc1cccc(F)c1CC[C@@H]1CN[C@H](COC(=O)NCC(F)(F)F)CO1)[C@H](c1ccc(F)cc1)c1ccc(Cl)cc1` [Example 273, (βR)-β-(4-chlorophenyl)-4-fluoro-N-(3-fluoro-2-{2-[(2R,5S)-5-({[(2,2,2-trifluoroethyl)carbamoyl]oxy}methyl)morpholin-2-yl]ethyl}phenyl)-L-phenylalaninamide], for which, in experiment [1], the IC50 was 1.4 nM. The same compound gave an EC50 in experiment [2] of 20 nM.

As for `N[C@H](C(=O)Nc1cccc(F)c1CC[C@@H]1CN[C@H](COC(=O)NCC(F)(F)F)CO1)C(c1ccc(F)cc1)c1ccc(F)cc1` [Example 80, 4-Fluoro-β-(4-fluorophenyl)-N-(3-fluoro-2-{2-[(2R,5S)-5-({[(2,2,2-trifluoroethyl)carbamoyl]oxy}methyl)morpholin-2-yl]ethyl}phenyl)-L-phenylalaninamide dihydrochloride], the IC50 in experiment [1] worked out at 9.4 nM. This compound also displayed an EC50 in experiment [2] of 45 nM.

For the compound `COC(=O)N[C@H](C(=O)Nc1cccc(F)c1CC[C@@H]1CN[C@H](COC(=O)NCC(F)(F)F)CO1)[C@@H](c1ccc(F)cc1)C1CCOCC1` [Example 130, (βR)-4-Fluoro-N-(3-fluoro-2-{2-[(2R,5S)-5-({[(2,2,2-trifluoroethyl)carbamoyl]oxy}methyl)morpholin-2-yl]ethyl}phenyl)-Nα-(methoxycarbonyl)-β-(tetrahydro-2H-pyran-4-yl)-L-phenylalaninamide], in experiment [1], the IC50 was 68 nM. In addition, in experiment [2], a half-maximal effect (EC50) was put at 26 nM.

`N[C@H](C(=O)Nc1cncc(F)c1CC[C@@H]1CN[C@H](COC(=O)NCC(F)(F)F)CO1)[C@H](c1ccc(F)cc1)c1ccc(Br)cc1` [Example 275, (βR)-4-bromo-β-(4-fluorophenyl)-N-(5-fluoro-4-{2-[(2R,5S)-5-({[(2,2,2-trifluoroethyl)carbamoyl]oxy}methyl)morpholin-2-yl]ethyl}pyridin-3-yl)-L-phenylalaninamide]: the IC50 in experiment [1] was found to be 0.4 nM. This compound also came in with an EC50 in experiment [2] of 25 nM.

Regarding `C[C@H](NC(=O)OC[C@@H]1CO[C@H](CCc2c(F)cccc2NC(=O)[C@@H](N)C(c2ccc(F)cc2)c2ccc(F)cc2)CN1)c1ccc(F)cc1` [Example 212, 4-fluoro-N-[3-fluoro-2-(2-{(2R,5S)-5-[({[(1S)-1-(4-fluorophenyl)ethyl]carbamoyl}oxy)methyl]morpholin-2-yl}ethyl)phenyl]-β-(4-fluorophenyl)-L-phenylalaninamide], the IC50 in experiment [1] worked out at 11 nM. The compound also displayed an EC50 in experiment [2] of 810 nM.

Turning to `COC(=O)N[C@H](C(=O)Nc1cccc(F)c1CC[C@@H]1CN[C@H](COC(=O)NCC(F)(F)F)CO1)C(c1cccc(F)c1)c1cccc(F)c1` [Example 307, 3-fluoro-β-(3-fluorophenyl)-N-(3-fluoro-2-{2-[(2R,5S)-5-({[(2,2,2-trifluoroethyl)carbamoyl]oxy}methyl)morpholin-2-yl]ethyl}phenyl)-Nα-(methoxy-carbonyl)-L-phenylalaninamide], in experiment [1], the IC50 came to 3 nM. The compound also displayed an EC50 in experiment [2] of 14 nM.

On to `CC1(CNC(=O)OC[C@@H]2CO[C@H](CCc3c(F)cncc3NC(=O)CC(c3ccc(F)cc3)c3ccc(F)cc3)CN2)CCCO1` (stereo partly drawn) [Example 166, {(3S,6R)-6-[2-(3-{[3,3-bis(4-fluoro-phenyl)propanoyl]amino}-5-fluoropyridin-4-yl)ethyl]morpholin-3-yl]methyl [(2-methyltetrahydrofuran-2-yl)methyl]carbamate], for which the IC50 in experiment [1] was determined as 14 nM. For the same compound, the EC50 in experiment [2] is 37 nM.

As for `COC(=O)N[C@H](C(=O)Nc1cccc(F)c1CC[C@@H]1CN[C@H](COC(=O)NCC(F)(F)F)CO1)[C@@H](c1ccc(F)cc1)c1cc(F)cc(F)c1` [Example 292, (βS)-3,5-difluoro-β-(4-fluorophenyl)-N-(3-fluoro-2-{2-[(2R,5S)-5-({[(2,2,2-trifluoroethyl)carbamoyl]oxy}methyl)morpholin-2-yl]ethyl}phenyl)-Nα-(methoxy-carbonyl)-L-phenylalaninamide], the IC50 in experiment [1] is 3.6 nM. In addition, the midpoint of the response in experiment [2], the EC50, lay at 16 nM.

As to `C[C@H](Oc1c(F)cccc1NC(=O)[C@@H](N)C(c1ccc(F)cc1)c1ccc(F)cc1)[C@@H]1CN[C@H](COC(=O)NCC(F)(F)F)CO1` [Example 193, 4-fluoro-β-(4-fluorophenyl)-N-(3-fluoro-2-{(1S)-1-[(2S,5S)-5-({[(2,2,2-trifluoroethyl)carbamoyl]oxy}methyl)morpholin-2-yl]ethoxy}phenyl)-L-phenylalaninamide], the IC50 in experiment [1] was 120 nM. This compound also returned an EC50 in experiment [2] of 1400 nM.

In the case of `CCOCCNC(=O)OC[C@@H]1CO[C@H](CCc2c(F)cncc2NC(=O)[C@@H](N)C(c2ccc(F)cc2)c2ccc(F)cc2)CN1` [Example 248, N-(4-{2-[(2R,5S)-5-({[(2-ethoxyethyl)carbamoyl]oxy}methyl)morpholin-2-yl]ethyl}-5-fluoropyridin-3-yl)-4-fluoro-β-(4-fluorophenyl)-L-phenylalaninamide], in experiment [1], the IC50 came to 9.8 nM. This compound also came in with an EC50 in experiment [2] of 55 nM.

`COC(=O)N[C@H](C(=O)Nc1cccc(F)c1CC[C@@H]1CN[C@H](COC(=O)NCC(F)(F)F)CO1)[C@@H](c1ccc(F)cc1)c1cccc(OC(F)(F)F)c1` [Example 303, (βS)-4-fluoro-N-(3-fluoro-2-{2-[(2R, 5S)-5-({[(2,2,2-trifluoroethyl)carbamoyl]oxy}methyl)morpholin-2-yl]ethyl}phenyl)-Nα-(methoxy-carbonyl)-β-[3-(trifluoromethoxy)phenyl]-L-phenylalaninamide]: the IC50 in experiment [1] is 5.3 nM. Also, the response in experiment [2] was half-maximal at 24 nM (EC50).

Turning to `COC(=O)N[C@H](C(=O)Nc1cncc(F)c1CC[C@@H]1CN[C@H](COC(=O)NCC(F)(F)F)CO1)[C@H](c1ccc(F)cc1)c1ccc(F)c(F)c1` [Example 297, (βR)-3,4-difluoro-β-(4-fluorophenyl)-N-(5-fluoro-4-{2-[(2R,5S)-5-({[(2,2,2-trifluoroethyl)carbamoyl]oxy}methyl)morpholin-2-yl]ethyl}pyridin-3-yl)-Nα-(methoxycarbonyl)-L-phenylalaninamide], the IC50 in experiment [1] worked out at 1 nM. Further, a half-maximal effect in experiment [2] (EC50) was put at 15 nM.

Turning to `N[C@H](C(=O)Nc1cccc(F)c1CC[C@@H]1CN[C@H](COC(=O)NCC(F)(F)F)CO1)[C@@H](c1ccc(F)cc1)c1cccc(OC(F)(F)F)c1` [Example 263, (βS)-4-fluoro-N-(3-fluoro-2-{2-[(2R,5S)-5-({[(2,2,2-trifluoroethyl)carbamoyl]oxy}methyl)morpholin-2-yl]ethyl}phenyl)-β-[3-(trifluoromethoxy)phenyl]-L-phenylalaninamide], the IC50 in experiment [1] came out at 3.7 nM. For the same compound, in experiment [2], the EC50 amounted to 48 nM.

`N[C@H](C(=O)Nc1cc(F)cc(F)c1OC[C@@H]1CN[C@H](COC(=O)NCC(F)(F)F)CO1)C(c1ccc(F)cc1)c1ccc(F)cc1` [Example 245, N-(3,5-difluoro-2-{[(2S,5S)-5-({[(2,2,2-trifluoroethyl)carbamoyl]oxy}methyl)morpholin-2-yl]methoxy}phenyl)-4-fluoro-β-(4-fluorophenyl)-L-phenylalaninamide]: in experiment [1], the IC50 was determined as 16 nM. The same compound returned an EC50 in experiment [2] of 360 nM.

Take `N[C@H](C(=O)Nc1cccc(F)c1CC[C@@H]1CN[C@H](COC(=O)NCc2cccnc2)CO1)C(c1ccc(F)cc1)c1ccc(F)cc1` [Example 201, 4-fluoro-β-(4-fluorophenyl)-N-(3-fluoro-2-{2-[(2R,5S)-5-({[(pyridin-3-ylmethyl)carbamoyl]oxy}methyl)morpholin-2-yl]ethyl}phenyl)-L-phenylalaninamide]: the IC50 in experiment [1] is 28 nM. In experiment [2], this compound had an EC50 of 80 nM.

On to `CC(C)COC(=O)N[C@H](C(=O)Nc1cncc(F)c1CC[C@@H]1CN[C@H](COC(=O)NCC(F)(F)F)CO1)C(c1ccc(F)cc1)c1ccc(F)cc1` [Example 140, 4-Fluoro-β-(4-fluorophenyl)-N-(5-fluoro-4-{2-[(2R,5S)-5-({[(2,2,2-trifluoroethyl)carbamoyl]oxy}methyl)morpholin-2-yl]ethyl}pyridin-3-yl)-Nα-[(2-methylpropoxy)carbonyl]-L-phenylalaninamide], for which, in experiment [1], the IC50 worked out at 2.1 nM. Moreover, a half-maximal effect in experiment [2] (EC50) was put at 21 nM.

Turning to `O=C(C[C@H](c1ccc(F)cc1)c1ccc(Cl)cc1)Nc1cccc(F)c1CC[C@@H]1CN[C@H](COC(=O)NCC(F)(F)F)CO1` [Example 154, {(3S,6R)-6-[2-(2-{[(3R)-3-(4-chlorophenyl)-3-(4-fluorophenyl)propanoyl]amino}-6-fluoro-phenyl)ethyl]morpholin-3-yl}methyl (2,2,2-trifluoroethyl)carbamate], the IC50 in experiment [1] came to 5.1 nM. This compound gave an EC50 in experiment [2] of 150 nM.

As for `N[C@H](C(=O)Nc1cncc(F)c1CC[C@@H]1CN[C@H](COC(=O)NCc2cc3ccccc3cn2)CO1)C(c1ccc(F)cc1)c1ccc(F)cc1` [Example 239, {(3S,6R)-6-[2-(3-fluoro-5-{[4-fluoro-β-(4-fluorophenyl)-L-phenylalanyl]amino}pyridin-4-yl)ethyl]morpholin-3-yl}methyl (isoquinolin-3-ylmethyl)carbamatc], the IC50 in experiment [1] amounted to 45 nM. In experiment [2], this compound displayed an EC50 of 420 nM.
